In US20260285849A1, “METHYLOPHIOPOGONONE A DERIVATIVE, AND PREPARATION AND USE THEREOF” (INSTITUTE OF MATERIA MEDICA, CHINESE ACADEMY OF MEDICAL …, priority 2022, published 2026):

Tests used:
Type in all cases: in vivo
[1] = test system: mice with hypertensive heart disease induced by angiotensin II (AngII); test: AngII-induced hypertensive heart disease mouse model: echocardiogram; conditions: left ventricle, day 14
Procedure: After male C57BL/6 mice were acclimated to the environment, they were randomly divided into 10 groups, namely the blank control group, the AngII model group, the AngII+telmisartan 10 mg/kg positive control group, the AngII+spironolactone 20 mg/kg positive control group, the AngII+Formula I (0.1, 0.5, 2 mg/kg) groups, and the AngII+Formula II (0.1, 0.5, 2 mg/kg) groups. The mice in the drug administration groups were intragastrically administered the corresponding doses of Formula I and Formula II compounds once a day at the same time. The mice in the positive control groups were intragastrically administered the corresponding doses of telmisartan and spironolactone once a day. The mice in the blank control group and the model group were given the same amount of solvent (0.5% CMC-Na solution). The administration volume was 10 mL/kg, and the administration was continuous for 14 days.
From the 1st to the 13th day of drug administration, AngII modeling was carried out. The mice in the blank control group were subcutaneously injected with normal saline, and the mice in the other groups were subcutaneously injected with 1.44 mg/kg of AngII (modeling was carried out 2 h after drug administration), for a total of 13 times.
Echocardiogram detection: On the 14th day of drug administration (after 13 times of AngII modeling), 5 animals were randomly selected from each group. After anesthesia and fixation, the chest hair was shaved, and a small amount of coupling agent was applied to the chest. The Vevo 770 Imaging System, a small animal ultrasonic real-time imaging system, was used for echocardiogram examination. All echocardiogram indexes of the animals were continuously measured for 3 cardiac cycles, and the average value was taken.

[2] = test system: mice with hypertensive heart disease induced by angiotensin II (AngII); test: AngII-induced hypertensive heart disease mouse model: serum BNP (ELISA)
Procedure: (§1) After male C57BL/6 mice were acclimated to the environment, they were randomly divided into 10 groups, namely the blank control group, the AngII model group, the AngII+telmisartan 10 mg/kg positive control group, the AngII+spironolactone 20 mg/kg positive control group, the AngII+Formula I (0.1, 0.5, 2 mg/kg) groups, and the AngII+Formula II (0.1, 0.5, 2 mg/kg) groups. The mice in the drug administration groups were intragastrically administered the corresponding doses of Formula I and Formula II compounds once a day at the same time. The mice in the positive control groups were intragastrically administered the corresponding doses of telmisartan and spironolactone once a day. The mice in the blank control group and the model group were given the same amount of solvent (0.5% CMC-Na solution). The administration volume was 10 mL/kg, and the administration was continuous for 14 days. From the 1st to the 13th day of drug administration, AngII modeling was carried out. The mice in the blank control group were subcutaneously injected with normal saline, and the mice in the other groups were subcutaneously injected with 1.44 mg/kg of AngII (modeling was carried out 2 h after drug administration), for a total of 13 times. Detection of myocardial hypertrophy/heart failure biomarkers: After the experiment, the animals were sacrificed by enucleation to obtain blood. The blood was left to stand at room temperature for 2 hours, and then centrifuged at 3500 rpm for 20 minutes to separate the serum. The content of serum BNP was determined according to the instructions of the ELISA kit.

[3] = test system: mice with hypertensive heart disease induced by angiotensin II (AngII); test: AngII-induced hypertensive heart disease mouse model: serum TNF-α (ELISA)
Procedure: as §1, with “serum inflammatory factors:” for “myocardial hypertrophy/heart failure biomarkers:”, “TNF-α” for “BNP”

[4] = test system: mice with hypertensive heart disease induced by angiotensin II (AngII); test: AngII-induced hypertensive heart disease mouse model: serum cAMP (ELISA)
Procedure: as §1, with “serum CAMP level:” for “myocardial hypertrophy/heart failure biomarkers:”, “cAMP” for “BNP”

[5] = 0.1 mg/kg intragastric once a day
[6] = 0.5 mg/kg intragastric once a day
[7] = 2 mg/kg intragastric once a day
[8] = 0.1 mg/kg intragastric once a day 14 days
[9] = 0.5 mg/kg intragastric once a day 14 days
[10] = 2 mg/kg intragastric once a day 14 days
[11] = 20 mg/kg intragastric once a day
[12] = 20 mg/kg intragastric once a day 14 days
[13] = 10 mg/kg intragastric once a day
[14] = 10 mg/kg intragastric once a day 14 days

| SMILES | Post-diastolic posterio rwall thickness [1, 5] [mm] | Posterior wall thickness in systole [1, 5] [mm] | Post-diastolic posterio rwall thickness [1, 6] [mm] | Posterior wall thickness in systole [1, 6] [mm] | Post-diastolic posterio rwall thickness [1, 7] [mm] | Posterior wall thickness in systole [1, 7] [mm] | BNP [2, 8] [pg/mL] | BNP [2, 9] [pg/mL] | BNP [2, 10] [pg/mL] | TNF-α [3, 8] [ng/L] | TNF-α [3, 9] [ng/L] | TNF-α [3, 10] [ng/L] | cAMP [4, 8] [nmol/L] | cAMP [4, 9] [nmol/L] | cAMP [4, 10] | other results |
| --- | --- | --- | --- | --- | --- | --- | --- | --- | --- | --- | --- | --- | --- | --- | --- | --- |
| Cc1c(O)cc(O)c2c(=O)c(Cc3ccc4c(c3)OCO4)coc12 [Formula II, 3-(benzo[d][1,3]dioxol-5-ylmethyl)-5,7-dihydroxy-8-methyl-4H-chromen-4-one] | 0.72 ± 0.08 | 0.91 ± 0.10 | 0.69 ± 0.06 | 0.87 ± 0.04 | 0.72 ± 0.06 | 0.82 ± 0.11 | 103.21 ± 16.09 | 101.08 ± 9.09 | 91.67 ± 15.39 | 645.36 ± 87.50 | 671.09 ± 80.55 | 627.56 ± 98.89 | 24.81 ± 1.63 | 26.38 ± 1.81 | 24.42 ± 2.07 nmol/L |  |
| O=c1c(Cc2ccc3c(c2)OCO3)coc2cc(O)cc(O)c12 [Formula I] | 0.79 ± 0.09 | 0.90 ± 0.06 | 0.64 ± 0.02 | 0.87 ± 0.11 | 0.67 ± 0.08 | 0.90 ± 0.16 | 112.93 ± 17.57 | 117.59 ± 13.78 | 102.97 ± 5.56 | 706.64 ± 91.15 | 699.02 ± 55.58 | 634.24 ± 98.58 | 27.73 ± 3.03 | 27.42 ± 1.12 | 29.04 ± 5.17 ^ nmol/L |  |
| CC(=O)S[C@@H]1CC2=CC(=O)CC[C@]2(C)[C@H]2CC[C@@]3(C)[C@@H](CC[C@@]34CCC(=O)O4)[C@H]12 [Spironolactone, reference compound] |  |  |  |  |  |  |  |  |  |  |  |  |  |  |  | Post-diastolic posterio rwall thickness [1, 11]: 0.81 ± 0.07 mm; Posterior wall thickness in systole [1, 11]: 1.01 ± 0.08 mm; BNP [2, 12]: 129.92 ± 15.60 pg/mL; TNF-α [3, 12]: 758.49 ± 72.35 ng/L; cAMP [4, 12]: 29.34 ± 3.04 ^ nmol/L |
| CCCc1nc2c(C)cc(-c3nc4ccccc4n3C)cc2n1Cc1ccc(-c2ccccc2C(=O)O)cc1 [Telmisartan, reference compound] |  |  |  |  |  |  |  |  |  |  |  |  |  |  |  | Post-diastolic posterio rwall thickness [1, 13]: 0.65 ± 0.07 mm; Posterior wall thickness in systole [1, 13]: 0.79 ± 0.16 mm; BNP [2, 14]: 96.84 ± 7.34 pg/mL; TNF-α [3, 14]: 616.87 ± 70.42 ng/L; cAMP [4, 14]: 25.18 ± 1.10 nmol/L |
